Data: paper PMC4366505, “Triggering HIV polyprotein processing by light using rapid photodegradation of a tight-binding protease inhibitor” (Nature Communications, 2015)
Read-outs that look alike come from different tables or passages of the source.

How the values were obtained:
[1] = Cytotoxicity, XTT, HEK293T cells; details: human, HEK293T cells
Description: (§3) Cytotoxicity was determined by incubating two-fold serial dilutions of 1 in triplicate in a 96-well plate
(§4) with 30,000 HEK293T cells/well seeded day ago in Dulbecco’s modified Eagle’s medium with L-
(§5) glutamine supplemented with 10% fetal calf serum (FCS, PAA), 100 U of penicillin/mL, 100 µg of
(§6) streptomycin/mL (Sigma-Aldrich) and with 30,000 MT-4 cells (obtained through the NIH AIDS
(§7) medium with 2 mM L-glutamine (PAA) supplemented with 10% FCS, 10 mM HEPES (Sigma-Aldrich),
(§8) 100 U of penicillin/ml, and 100 µg of streptomycin/mL. After 72 h of incubation at 37 °C, 5 % CO2,
(§9) tetrazolium salt XTT (Sigma-Aldrich) was added to the wells for 4 h and formation of colored
(§10) formazan solution was quantified using Victor X3 plate reader (Perkin Elmer). The percentage of
(§11) cytopathic effect (CPE) was plotted against the log10 1 concentrations and the 50 % cytotoxic
(§12) concentrations (CC50) were calculated using nonlinear regression analysis with GraphPad Prism ver. 6
(§13) 1NL4-3hRluc (HIV expressing human Renilla luciferase12) at multiplicity of infection 0.001 IU/ml for 1 h at […]
(§14) dilutions of 1. After 72 h incubation at 37 °C, 5 % CO2 HIV-1 activity was quantified by measuring
(§15) Renilla luciferase luminescence using the Renilla Luciferase Assay System (Promega) in Victor X3
(§16) plate reader. Percentage of inhibition of luminescence activity was plotted against the log10 1 […]

HEK293T cells = assay: Cytotoxicity, XTT, HEK293T cells; details: 2 μM in 0.5% DMSO; cell line not given
[2] = biological target: T1, purified recombinant HIV-1 PR (Human immunodeficiency virus type 1 group M subtype B, UniProt P04585); assay: Reactivation of inhibited HIV-1 PR by photolysis at 405 nm, cuvette set up; assay type: biochemical; details: 8 nM PR
T1 construct: This 99 amino acid long homodimeric aspartic PR; made in house; host or cells: Escherichia coli BL21(DE3) RIL
Description: (§1) To evaluate the efficacy of photodegradation, we analyzed the restoration of HIV-1 PR activity that had been inhibited by compound 1 (Fig. 3a) on irradiation at 405 nm. For irradiation, two lasers with outputs of 130 mW and 170 mW, respectively, were used in parallel. First, we tested a standard cuvette set up, in which 8 nM purified recombinant HIV-1 PR (final concentration of compound 1: 10 or 100 nM; Fig. 3b) in 1 ml cleavage buffer was irradiated. At the lower concentration, irradiation led to a significant restoration of enzyme activity (65% compared with the uninhibited enzyme reaction). […]
(§2) Figure 3 Kinetic analysis of HIV-1 PR reactivation by inhibitor photodegradation. […] The activity of purified recombinant HIV-1 PR was determined in vitro as described in the experimental section in the presence of the indicated inhibitor concentrations. […] The PR activity was then measured using a chromogenic substrate. […] Relative PR activity was determined as in b after 20-fold dilution into cleavage buffer using the same chromogenic substrate (for details, see Experimental section) and plotted against the flow rate of the sample through the capillary. […]
Cuvette set up. […] The enzyme activity (and thus the efficacy of photodegradation) was followed by the decrease in absorbance at 305 nm.

[3] = Solubility in culture conditions; assay type: physicochemical; details: 2 μM in 0.5% DMSO
[4] = Cytotoxicity, XTT, MT-4 cells; details: human
Description: as §3, §4, §5, §6, §7, §8, §9, §10, §11, §12, §13, §14, §15, §16

[5] = system: HIV-1 Gag polyprotein processing; assay: Inhibition of HIV-1 Gag polyprotein processing in particles from transfected HEK293T cells (immunoblot); assay type: cell-based; details: Human immunodeficiency virus 1, HEK-293T; particles from HEK293T cells transfected with HIV-1 proviral plasmid; read-out: concentration giving ~50% reduction in Gag cleavage
Description: PR-mediated cleavage of the Gag polyprotein yields the mature structural proteins and two small spacer peptides (Fig. 4a), and different rates of cleavage at individual sites result in the generation of characteristic processing intermediates. First, we assessed the inhibitory potency of compound 1 on HIV-1 Gag polyprotein processing in virus producing cells. For this, particles were purified from the supernatant of HEK293T cells transfected with an HIV-1 proviral plasmid and incubated in the presence of various concentrations of compound 1.
Figure 4 Inhibition of HIV-1 Gag processing by compound 1. (a) Schematic representation of the 55 kDa HIV-1 Gag polyprotein and its cleavage products. (b) Inhibition of HIV-1 Gag processing by compound 1. HIV-1 particles were produced in HEK293T cells in the presence of the indicated inhibitor concentrations. […]
Samples were separated by SDS–PAGE (17.5%; acrylamide:bisacrylamide 200:1), and proteins were transferred to a nitrocellulose membrane by semi-dry blotting. HIV-1 Gag-derived proteins were detected using rabbit polyclonal antiserum raised against HIV-1 CA, followed by fluorescently labelled goat-anti rabbit secondary antibody (LiCor). Quantification of anti-CA reactive bands was performed using an infrared imaging system (LiCor Odyssey) and Image Studio Lite software. Data were analyzed with GraphPad prism.

[6] = system: HIV-1 replication in MT-4 cells; assay: Anti-HIV-1 activity in MT-4 cells (HIV-1 NL4-3 hRluc, Renilla luciferase); details: Human immunodeficiency virus 1, MT4, 72 h, read-out: EC50, inhibition of HIV-1 replication
Description: as §3, §4, §5, §6, §7, §8, §9, §10, §11, §12, §13, §14, §15, §16

[7] = system: HIV-1 PR inside immature HIV-1 particles; assay: Photoinduced Gag processing in immature HIV-1 particles produced with inhibitor (capillary irradiation, quantitative immunoblot); assay type: cell-based
Description: Having established conditions for the inhibition of HIV-1 polyprotein processing by compound 1, we proceeded to prepare immature particles for in situ activation of PR. For this, virus particles were produced in transfected HEK293T cells grown in the presence of 2 μM inhibitor. The experimental set up is schematically illustrated in Fig. 5a. Particles collected from inhibitor-treated cells were either subjected to inhibitor wash-out by two subsequent ultracentrifugation steps (Fig. 5b), or only filtered to remove cell debris (Fig. 5c). In both cases, samples were then either irradiated (405 nm) in a glass capillary (Fig. 5b,c, bottom panels) or passed through the capillary in the absence of irradiation (Fig. 5b,c, top panels).
Figure 5 Photoinduced Gag processing in the context of the assembled virion. (a) Schematic illustration of the irradiation experiment to trigger HIV-1 maturation using photoinactivation of compound 1. HEK293T cells were transfected with a proviral HIV-1 plasmid and particles were produced in the presence of 2 μM compound 1. At 44 h post transfection, tissue culture supernatant was harvested and either subjected to ultracentrifugation (b,d) or used directly (c,e). In both cases, samples were then pumped through the capillary set up shown in Supplementary Fig. 4 either with or without ultraviolet irradiation. Subsequently, samples were incubated for various lengths of time. (b,c) Immunoblot analysis of Gag processing products. Samples were separated by SDS–PAGE, and products of Gag processing were detected by quantitative immunoblot (LiCor) using antiserum raised against recombinant HIV-1 CA. The figures show samples incubated for the indicated times without prior irradiation or following irradiation, respectively. Positions of Gag-derived proteins are indicated. (d,e) Quantitative analysis of the experiments shown in b or c, respectively. Anti-CA reactive bands from the immunoblots shown and from corresponding blots from irradiated mature control virus produced in the absence of inhibitor (not shown here) were quantified using Image Studio Light. The graphs show the proportion of mature CA relative to the sum of all anti-CA reactive bands in the respective lane. Filled triangles, irradiated control virus; open circles, inhibitor-treated virus, not irradiated; filled circles, inhibitor-treated virus, irradiated. Curves through data from inhibitor-treated samples represent fits to a single exponential equation. The results are representative of several independent experiments with a slight variation in the half-time of Gag polyprotein processing between 20 and 30 min. CA, capsid; MA, matrix.
HEK293T cells were seeded in six-well plates in high-glucose, phenol red-free DMEM supplemented with penicillin/streptomycin and 10% foetal calf serum. On the following day, cells were transfected with plasmid pCHIV[37] using polyethyleneimine according to standard procedures. A final concentration of 2 μM compound 1 or DMSO (vehicle) was added to the tissue culture medium at the time of transfection. At 44 h post transfection, tissue culture supernatants were harvested, adjusted to pH 6.0 using PR buffer (50 mM MES, pH 6.0, 150 mM NaCl, 2 mM DTT, 1 mM EDTA). Alternatively, supernatants were harvested, filtered, inhibitor was removed by two successive ultracentrifugation steps through a 20% sucrose cushion and the particle pellet was resuspended in PR buffer. […]

[8] = biological target: T1, purified recombinant HIV-1 PR; assay: Inhibition of HIV-1 PR, spectrophotometric assay with chromogenic substrate (Morrison equation); assay type: biochemical
Description: Ki values were determined by spectrophotometric assay using purified recombinant HIV-1 PR and the chromogenic substrate KARVNleNphEaNle-NH2. Data were analyzed using the Morrison equation[35].

[9] = biological target: T1, purified recombinant HIV-1 PR; assay: Reactivation of inhibited HIV-1 PR by photolysis at 405 nm, capillary set up; assay type: biochemical
Description: as §1, with “reaction). At the higher concentration of compound 1, however, PR reactivation was limited even after prolonged irradiation (only 35% activity after 5 min of irradiation).” for “reaction).”
as §2

SMILES | CC50 at 72 h [1] [nM] | cytotoxicity at working concentration (HEK293T cells) | remaining activity at 0.01 µM ([2]; 10 nM compound 1, 405 nm irradiation, read-out: restoration of enzyme activity compared with the uninhibited enzyme reaction) [%] | PR activity after irradiation ([2]; 100 nM compound 1, after 5 min of irradiation at 405 nm) [%] | solubility [3] | CC50 at 72 h [4] [nM] | IC50 [5] [nM] | EC50 [6] [nM] | Gag processing after irradiation ([7]; culture medium without inhibitor removal, irradiated at 405 nm) | Gag processing without irradiation ([7]; culture medium without inhibitor removal, no irradiation, prolonged incubation) | mature CA (proportion of all anti-CA reactive bands) ([7]; inhibitor wash-out by ultracentrifugation, then irradiated at 405 nm, within 15 min, particles produced with 2 μM) | unprocessed or partially processed Gag products remaining ([7]; inhibitor wash-out, then irradiated, at 6 h of incubation) | half-time of Gag processing after irradiation ([7]; particles produced with 2 μM inhibitor, irradiated at 405 nm in capillary) | Ki [8] [nM] | difference in Ki values for RTV and compound 1 ([8]; RTV more potent) [fold] | loss of potency on irradiation ([8]; irradiation with a 405 nm laser, inhibitor versus photolysis product) | compound degraded by irradiation (estimate) ([9]; estimated from 75% restored PR activity) | original PR activity recovered ([9]; flow rate 15 μl min^−1, inhibitor concentration 100 nM, 405 nm) | Ki ([8]; purified recombinant HIV-1 PR, chromogenic substrate KARVNleNphEaNle-NH2, read-out: Ki) [nM]
CCN(CC)c1ccc2c(COC(=O)N[C@H](C(=O)N[C@@H](Cc3ccccc3)C[C@H](O)[C@H](Cc3ccccc3)NC(=O)OCc3cncs3)C(C)C)cc(=O)oc2c1 [compound 1] | > 50000 | noncytotoxic | 65 | 35 | soluble | 7300 | ~500 | 8.1 | virtually complete Gag processing | no induction of proteolysis | ~ 30% | ~ 50% | ~ 20 min | 0.17 ± 0.02 | 10 | 4 orders of magnitude | up to 98% | up to 75% | 
CC(C)[C@H](N)C(=O)N[C@@H](Cc1ccccc1)C[C@H](O)[C@H](Cc1ccccc1)NC(=O)OCc1cncs1 [compound 2] |  |  |  |  |  |  |  |  |  |  |  |  |  |  |  |  |  |  | 3200 ± 300
